Here are results for 1 compound from patent US20100196885A1, “METHODS OF […] COMPOUNDS FOR USE IN TREATING COPD AND OTHER DISEASES” (priority 2007, published 2010).

In assay [1] the test system is lung elastin degradation. The assay can be described thus: D/I levels in plasma, urine and sputum of COPD patients before and after Tiotropium, by LC/MS. In kind it is in vivo, human. As for the experimental part: The mass spectrometric method was used for direct measurement of D/I in urine, plasma and sputum as markers of elastin degradation in healthy controls, patients with α1-antitrypsin deficiency (AATD) and non-AATD-related COPD. Preparation of specimens of urine and sputum and measurements by mass spectrometry (LC/MS) were performed as previously described in Ma S, Lieberman S, Turino G M and Lin Y Y: The detection and quantitation of free desmosine and isodesmosine in human urine and their peptide-bound forms in sputum. PNAS 2003, 100:12941-12943, which is incorporated by reference as if recited in full herein. D and I standard (mixed 50% D and 50% I) were purchased from Elastin Products (Owensville, Mich.), and all other reagents were from Sigma (St. Louis, Mo.). MCX cation exchange cartridges (3 ml) were obtained from Waters (Milford, Mass.), and CF1 cellulose powders were purchased from Whatman (Clifton, N.J.).
Urine samples. Twenty-four hour urine samples were collected and analyzed as previously described in Ma S, et al., 2003.
Plasma samples. Plasma samples were obtained after centrifuging venous blood specimens at 2500 r.p.m. for 25 min. Samples were stored at −20 C until used. One ml of plasma and 1 ml of concentrated HCl (37%) were placed in a glass vial. After air in the sample was displaced with a stream of nitrogen, the sample was acid hydrolyzed for 24 hours in 6N HCl. After evaporation to dryness, the residue was dissolved in 2 ml of a mixed solution of n-butanol/acetic acid/6 N HCl (4:1:1, by volume). The sample solution was loaded onto a 3 ml CF1 cartridge. The CF1 cartridge was prepared by introducing 3 ml of the slurry of 5% CF1 cellulose powder in a mixture of n-butanol/acetic acid/water (4:1:1, by volume). The cartridge was washed 3 times with 3 ml of n-butanol/acetic acid/water mixture, and D and I adsorbed in the CF1 cartridge were eluted with 3 ml of water. The eluate was evaporated to dryness under vacuum at 45° C. and the residue was dissolved in 0.1 ml of HPLC mobile phase for LC/MS analysis. For analysis in plasma, samples were processed and measured in duplicate and the results averaged.
Sputum Samples. Sputum samples were processed as previously described in Ma S, et al., 2003 with the following modification: The acid hydrolyzed samples were chromatographed using a CF1 cartridge as described in the treatment of plasma samples. Each sputum sample was processed and measured in duplicate and the results averaged. Sputum was obtained from 3-hour morning collections spontaneously produced. When subjects could not voluntarily produce sputum, sputum induction was induced by 3% saline inhalation for 20 minutes as previously described in Ma S, et al., 2003.
COPD patients have elevated levels of D/I in plasma, urine and sputum, which might respond to prolonged bronchodilation. […] Other anticholinergic bronchodilators were stopped prior to TIO, and other therapies/disease treatments were unchanged for the two months of study. To these patients, 18 mcg TIO was administered each 24 hours. D/I in plasma, urine and sputum were measured by liquid chromatography and mass spectrometry (LC/MS) prior to the study and at one month and two months after the study.

Assay [2] relates to COPD patients. Nature of the assay: Spirometry in post-TIO therapy patients. It is filed as in vivo, human. Particulars: most post-TIO therapy patients. As for the experimental part:
COPD patients have elevated levels of D/I in plasma, urine and sputum, which might respond to prolonged bronchodilation. To determine if clinical effects of Tiotropium (TIO) affect tissue degradation of the lung in COPD, clinically stable patients with COPD (n=9) not on TIO prior to the study and at one month and a second month after initiating therapy were tested. Other anticholinergic bronchodilators were stopped prior to TIO, and other therapies/disease treatments were unchanged for the two months of study. To these patients, 18 mcg TIO was administered each 24 hours. D/I in plasma, urine and sputum were measured by liquid chromatography and mass spectrometry (LC/MS) prior to the study and at one month and two months after the study.
The improvement in spirometric indices were usually concordant with levels of D/I in patients.

Molecules are shown by their SMILES.

Turning to `C[N+]1(C)[C@@H]2C[C@@H](OC(=O)C(O)(c3cccs3)c3cccs3)C[C@H]1[C@@H]1O[C@@H]12` [Tiotropium], the “Significant decreases in D/I levels in plasma (patients showing decrease)” value in assay [1] (COPD patients, 18 mcg TIO each 24 hours, one and two months, plasma, LC/MS) was 10 out of 12. For the same compound, the “Significant decreases in D/I levels in sputum (patients showing decrease)” value in assay [1] (COPD patients, 18 mcg TIO each 24 hours, one and two months, sputum, LC/MS) is recorded as “all 12 patients”. For the same compound, the “Significant decreases in D/I levels in urine (patients showing decrease)” value in assay [1] (COPD patients, 18 mcg TIO each 24 hours, one and two months, urine, LC/MS) is 10 out of 12. Besides, in assay [1] (COPD patients, one month vs second month of TIO), the “Calculated percentage decreases in D/I levels after TIO treatment, time course” value is “decreases beginning after one month with further decreases observed in the second month”. In assay [1] (COPD patients, two months of TIO), the “D/I levels in plasma, urine and sputum after two months of treatment” value is “significant reductions”. Further, in assay [1] (all 12 COPD patients, prolonged TIO treatment), the “Lung elastin degradation, overall response from percent decreases in D/I levels” value is given as “some decrease in lung elastin degradation”. Also, in assay [2], the “Force Vital Capacity (FVC)” value was “significant increase”, the “Forced Expired Volume in 1 second (FEV1)” value was “significant increase”, the “Residual Volume (RV)” value is recorded as “decreases” and the “ratio of FEV1/FVC” value is given as “significant increase”.
